Test results as given in US20030092684A1, “Compositions and methods for treating hemorrhagic virus infections and other disorders” (priority 1999, published 2003).
Values joined by “and” are separate entries in the source; they are usually repeats but may differ in a detail not shown here. Equal values may be shown once. Read-outs that look alike come from different tables or passages of the source.

Columns and labels:
Mononuclear human cells = test: In vitro activation of mononuclear human cells by antibiotics: IL-1RA and sTNFrI production; assay type: cell-based; settings: 0.06 mg/ml, activation for 2 hours
[1] = system: mice with the SEB-induced septic shock; parameters: species or system Balb/c mice; settings: mouse, in vivo
IL-1RA and sTNFrl = IL-1RA and sTNFrl in human donor serum after oral antibiotic stimulation; assay type: in vivo; settings: after stimulation, 2 persons, on the 24th hour
[2] = system: Lassa virus strain Josiah; parameters: species or system BALB/c mice; settings: mouse, in vivo
[3] = 7 day period without viral infection
[4] = system: Marburg virus strain Popp; parameters: species or system guinea-pigs; settings: guinea pig, in vivo
TNF-α and IL-1β [5] = test: Serum TNF and IL-1 in Dengue infected mice (Example 4); assay type: in vivo, BALB/c mice; settings: for IL-1 / TNF: 20 mg/kg orally twice per day from day -3 until day 8
Dengue virus type 2 = test: Dengue virus infection treated with tetracycline compounds (Example 4): mortality; assay type: in vivo, BALB/c mice; settings: 20 mg/kg orally twice per day from day -3 until day 8
[6] = 58 mg/kg i.m. during 17 day period without virus injection
TNF-α and IL-1β [7] = test: Serum TNF-α and IL-1β in Dengue infected mice (Example 5); assay type: in vivo, BALB/c mice; settings: 100 μg orally twice per day from day 3 until day 8
Dengue virus, type 2 = system: Dengue virus, type 2; parameters: species or system BALB/c mice; settings: mouse, in vivo, po

CN(C)C1C(O)=C(C(N)=O)C(=O)C2(O)C(O)=C3C(=O)c4c(O)cccc4C(C)(O)C3CC12 (stereo not drawn) [Tetracycline, 4-dimethylamino-1,4,4a,5,5a,6-11,12a-octahydro-3,6,10,12,12a-pentahydroxy-6-methyl-1,11-dioxo-2-naphthacenecarboxamide]
IL-1RA (Mononuclear human cells; 0 hours): 22 + 1.4 pg/ml | sTNFrI (Mononuclear human cells; 0 hours): 19 + 1.2 pg/ml | IL-1RA (Mononuclear human cells; 3 hours): 86 + 4.6 pg/ml | sTNFrI (Mononuclear human cells; 3 hours): 185 + 8.4 pg/ml | IL-1RA (Mononuclear human cells; 6 hours): 186 + 8.2 pg/ml | sTNFrI (Mononuclear human cells; 6 hours): 204 + 9.2 pg/ml | IL-1RA (Mononuclear human cells; 24 hours): 140 + 7.6 pg/ml | sTNFrI (Mononuclear human cells; 24 hours): 201 + 8.6 pg/ml | mice survived 96 hours postinduction [1]: About 20% | IL-1RA in the donor serum (IL-1RA and sTNFrl): 130 ± 6.8 pg/mL | sTNFrl in the donor serum (IL-1RA and sTNFrl): 580 ± 18.2 pg/mL | survival [2]: 80% | death ([2]; 58 mg/kg): 4 | toxicity to control groups [3]: not toxic | death ([3]; of 20 mice): 0 | survival ([3]; of 20 mice): 20 | m.t.d. (mean time to death) [4]: 8.75 and 8.06 and 7.91 | increase of the concentration of TNF (TNF-α and IL-1β [5]; 20 mg/kg orally twice per day): 2 fold | level of the cytokines in the serum versus control A2 group (TNF-α and IL-1β [5]; 20 mg/kg twice per day from day -3 until day 8): statistically lower | increase of the concentration of IL-1 (TNF-α and IL-1β [5]; by day 5 of the disease, 20 mg/kg orally twice per day): 10 fold | IL-1 (TNF-α and IL-1β [5]; day 0): 6.8 pg/mL | IL-1 (TNF-α and IL-1β [5]; day 1): 10.8 pg/mL | IL-1 (TNF-α and IL-1β [5]; day 3): 46.8 pg/mL | TNF (TNF-α and IL-1β [5]; day 3): 14.0 pg/mL | IL-1 (TNF-α and IL-1β [5]; day 5): 66.0 pg/mL | TNF (TNF-α and IL-1β [5]; day 5): 28.8 pg/mL | IL-1 (TNF-α and IL-1β [5]; day 6): 56.8 pg/mL | TNF (TNF-α and IL-1β [5]; day 6): 38.4 pg/mL | IL-1 (TNF-α and IL-1β [5]; day 7): 10.2 pg/mL | TNF (TNF-α and IL-1β [5]; day 7): 33 pg/mL | IL-1 (TNF-α and IL-1β [5]; day 12): 7.4 pg/mL | TNF (TNF-α and IL-1β [5]; day 12): 19.6 pg/mL | IL-1 (TNF-α and IL-1β [5]; day -1): 6.8 pg/mL | TNF (TNF-α and IL-1β [5]; day -1): 18.4 pg/mL | Survival/total amount (Dengue virus type 2; day 0): 20/20 | Survival/total amount (Dengue virus type 2; day 1): 20/20 | Survival/total amount (Dengue virus type 2; day 3): 20/20 | Survival/total amount (Dengue virus type 2; day 5): 16/20 | Survival/total amount (Dengue virus type 2; day 6): 11/20 | Survival/total amount (Dengue virus type 2; day 7): 8/20 | Survival/total amount (Dengue virus type 2; day 12): 8/20 | Survival/total amount (Dengue virus type 2; day -1): 20/20 | toxicity to control groups [6]: not toxic | survival ([6]; of 6 guinea pigs): 6 | IL-1 (TNF-α and IL-1β [7]; day 0): 6.0 pg/mL | TNF (TNF-α and IL-1β [7]; day 0): 7.8 pg/mL | IL-1 (TNF-α and IL-1β [7]; day 1): 12.0 pg/mL | TNF (TNF-α and IL-1β [7]; day 1): 13.8 pg/mL | IL-1 (TNF-α and IL-1β [7]; day 3): 36.0 pg/mL | TNF (TNF-α and IL-1β [7]; day 3): 38.2 pg/mL | IL-1 (TNF-α and IL-1β [7]; day 5): 48.6 pg/mL | TNF (TNF-α and IL-1β [7]; day 5): 56.2 pg/mL | IL-1 (TNF-α and IL-1β [7]; day 6): 62.4 pg/mL | TNF (TNF-α and IL-1β [7]; day 6): 156.8 pg/mL | IL-1 (TNF-α and IL-1β [7]; day 12): 15.6 pg/mL | TNF (TNF-α and IL-1β [7]; day 12): 18.0 pg/mL | IL-1 (TNF-α and IL-1β [7]; day 21): 5.8 pg/mL | TNF (TNF-α and IL-1β [7]; day 21): 7.4 pg/mL | Survived/died (Dengue virus, type 2): 9/11 | m.t.d. (average lifetime) (Dengue virus, type 2): 8.40 ± 0.73
